How the values were obtained:
[1] = target: T1, TRACP 5a (Homo sapiens, UniProt P13686); assay: Enzymatic activity of TRACP 5a bound to immobilized anti-TRACP 5b antibody plate, end-point absorbance; type: biochemical
T1 construct: TRACP 5a derived from human serum and eluted from a HiTrap Heparin HP column; from tissue; host or cells: human serum, heparin column fraction
T1 sequence (P13686 22-325): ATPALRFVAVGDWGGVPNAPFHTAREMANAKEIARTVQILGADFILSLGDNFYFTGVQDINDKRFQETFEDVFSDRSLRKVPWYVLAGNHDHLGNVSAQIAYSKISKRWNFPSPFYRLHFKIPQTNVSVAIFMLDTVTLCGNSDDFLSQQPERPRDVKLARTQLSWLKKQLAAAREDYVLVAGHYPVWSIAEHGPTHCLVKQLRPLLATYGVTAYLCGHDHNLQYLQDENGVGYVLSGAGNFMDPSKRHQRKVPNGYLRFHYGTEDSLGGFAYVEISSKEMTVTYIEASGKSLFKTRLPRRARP
Description: (§1) The pH of a buffer solution containing a substrate CNPP was varied from 5.6 to 6.8 and the activity of TRACP 5b and TRACP 5a for this substrate was assayed. This substrate buffer solution had the following composition: CNPP 5 mM, Mes 0.1 M and sodium tartrate 40 mM. Its pH was adjusted to values varying from 5.6 to 6.8 by steps of 0.2. TRACP 5b and TRACP 5a used as samples were prepared by separating human serum by the use of a Heparin column and concentrating a fraction corresponding to a peak due to each of TRACP 5a and TRACP 5b. As TRACP 5a, there was used a sample having such a concentration that its absorbance was 0.8 at pH 5.6 (the optimum for TRACP 5a). As TRACP 5b, there was used a sample having such a concentration that its absorbance was 0.8 at pH 6.4 (the optimum for TRACP 5b). As to a method for the assay, a plate having an anti-TRACP 5b antibody Trk27 immobilized thereon was used and 100 μl of each sample was added to each well and stirred with shaking at room temperature for 1 hour. Then, the reaction solution was discarded and each well was washed three times with 200 μl of Tris buffer containing 0.05% Tween 20. Thereafter, 100 μl of the substrate buffer solution was added to each well and shaken for 30 seconds, followed by incubation in an incubator at 37° C. for 1 hour. Then, 50 μl of 0.2N NaOH was added to each well to terminate the enzyme reaction and the absorbance of the reaction solution was measured with a microtiter plate reader. Under such conditions, the optimum pH for TRACP 5b was about 6.4 and that for TRACP 5a was 5.6.
(§2) Absorbance values due to the reaction of a buffer solution containing a substrate CNPP with each of TRACP 5a and TRACP 5b at pHs 6.2, 6.4, 6.6 and 6.8 were compared with results obtained in a comparative example using a buffer solution (pH 6.1) containing, as a substrate, PNPP that is considered suitable for the assay of TRACP 5b. According to the method disclosed in Japanese Patent Application Kohyo No. 2002-510050, the composition of this PNPP substrate buffer solution was as follows: PNPP 8 mM, sodium acetate 0.1M, sodium tartrate 40 mM, pH 6.1. As a sample of TRACP 5b, the same sample as in Example 1 was used. As a sample of TRACP 5a, a sample was used which had been prepared so that in the comparative example (PNPP was used at pH 6.1), a value for TRACP 5a might be one-tenth that for TRACP 5b according to the data disclosed in Japanese Patent Application Kohyo No. 2002-510050. The same assay procedure as in Example 1 was carried out and absorbance was used as an indication of the enzymatic activity.

[2] = tested on: TRACP 5b; assay: Enzymatic activity of TRACP 5b bound to immobilized anti-TRACP 5b antibody plate, end-point absorbance; type: biochemical, human
Description: as §1, §2

[3] = tested on: TRACP 5b; assay: as above; type: biochemical, human; conditions: pH 6.9
[4] = target: T1, TRACP 5a; conditions: pH 5.2; according to Clin. Chem., 47(1), 74-80; cited from earlier work
[5] = target: T2, TRACP 5b (Homo sapiens, UniProt P13686); conditions: pH 5.8; according to Clin. Chem., 47(1), 74-80; cited from earlier work
T2 sequence (P13686 22-325): T1 sequence (P13686 22-325)

[6] = substrate: O=[N+]([O-])c1ccc(OP(=O)(O)O)c(Cl)c1; assay: Km measurement of substrate with TRACP 5b; type: biochemical, human; conditions: other: pH 6.4
Description: (§3) In order to investigate the difference between TRACP 5b and TRACP 5a in reactivity with 2-chloro-4-nitrophenylphosphoric acid (CNPP), Km for each of them was measured.
(§4) That is, for the assay of TRACP 5b, CNPP used in the present invention is more advantageous than PNPP from the viewpoint of affinity and specificity.

[7] = substrate: O=[N+]([O-])c1ccc(OP(=O)(O)O)c(Cl)c1; assay: Km measurement of substrate with TRACP 5a; type: biochemical, human; conditions: other: pH 5.6
Description: as §3, §4

[8] = pH 6.1, PNPP 8 mM, sodium acetate 0.1M, sodium tartrate 40 mM

For O=[N+]([O-])c1ccc(OP(=O)(O)O)c(Cl)c1 [CNPP, 2-chloro-4-nitrophenylphosphoric acid], the “optimum pH for TRACP 5a” value ([1]; CNPP 5 mM, Mes 0.1 M, sodium tartrate 40 mM, pH 5.6 to 6.8, 37° C. 1 hour) was 5.6, the “absorbance (enzymatic activity), sample TRACP 5a” value (shortened to “absorbance … sample TRACP 5a”) ([1]; pH 6.2) was 0.062 and the “absorbance … sample TRACP 5a” value ([1]; pH 6.4) was 0.047. The “absorbance … sample TRACP 5a” value ([1]; pH 6.6) was 0.038, the “absorbance … sample TRACP 5a” value ([1]; pH 6.9) was 0.025 and the “TRACP 5b/5a ratio” value ([2]; pH 6.2) was 13. The “absorbance (enzymatic activity), sample TRACP 5b” value (“absorbance … sample TRACP 5b” below) ([2]; pH 6.2) was 0.802, the “TRACP 5b/5a ratio” value ([2]; pH 6.4) was 17 and the “absorbance … sample TRACP 5b” value ([2]; pH 6.4) was 0.811. The “TRACP 5b/5a ratio” value ([2]; pH 6.6) was 18, the “absorbance … sample TRACP 5b” value ([2]; pH 6.6) was 0.674 and the “TRACP 5b/5a ratio” value [3] was 16. For the same molecule, the “absorbance … sample TRACP 5b” value [3] was 0.401.

In the case of O=[N+]([O-])c1ccc(OP(=O)(O)O)cc1 [PNPP, p-nitrophenylphosphoric acid, reference compound], the Km [4] is listed as 1900 µM, the “absorbance … sample TRACP 5a” value ([1]; pH 6.1, PNPP 8 mM, sodium acetate 0.1M, sodium tartrate 40 mM, 5a sample prepared to give one-tenth of 5b value) is listed as 0.098 and the “TRACP 5b/5a ratio” value [2, 8] is listed as 10. For the same molecule, the “absorbance … sample TRACP 5b” value [2, 8] was 0.981 and the Km [5] was 7000 µM.

B1: TRACP 5b (Homo sapiens) (protein)
chain: T1 sequence (P13686 22-325)
In the case of B1, the Km [6] is reported as 1500 µM.

B2: TRACP 5a (Homo sapiens) (protein)
chain: T1 sequence (P13686 22-325)
notes: TRACP 5a derived from human serum and eluted from a HiTrap Heparin HP column; from tissue; host or cells: human serum, heparin column fraction
For B2, the Km [7] was 3500 µM.

Reference: US7465556B2, “Method of immunoassay tartrate resistant acid phosphatase 5b and kit to be used therein” (Nitto Boseki Co., Ltd., priority 2003, dated 2008)
